Series [1] in a line: Clearance in Sprague-Dawley rat at 2 mg/kg, iv by LC-MS/MS analysis. Format: ADME, organism-based. The settings on record: in vivo.
Series [2] can be described thus: Tmax in Sprague-Dawley rat at 15 mg/kg, po by LC-MS/MS analysis. It is filed as ADME, organism-based. The conditions noted are these: in vivo.
Series [3] concerns HCT-116. Put plainly: animal or person. The settings on record: Mus musculus, HCT-116, po, read-out: TGI.
A short description of series [4]: Tmax in Sprague-Dawley rat at 2 mg/kg, iv by LC-MS/MS analysis. Format: ADME, organism-based. The settings on record: in vivo.
Series [5] is described as follows: AUC (0 to t) in Sprague-Dawley rat at 2 mg/kg, iv by LC-MS/MS analysis. It is filed as ADME, organism-based. The conditions noted are these: in vivo.
The test system of series [6] is A549. Put plainly: cells. The conditions noted are these: Homo sapiens, A549, 72 h.
Description: Antiproliferative activity against human A549 cells after 72 hrs by MTT assay
Series [7] is described as follows: Half life in Sprague-Dawley rat at 2 mg/kg, iv by LC-MS/MS analysis. The conditions noted are these: in vivo. It is filed as ADME, organism-based.
In series [8] the test system is HCT-116. Kind of series: cells. The settings on record: Homo sapiens, HCT-116, 72 h.
Description: Antiproliferative activity against human HCT116 cells after 72 hrs by MTT assay
Series [9] can be described thus: Cmax in Sprague-Dawley rat at 2 mg/kg, iv by LC-MS/MS analysis. Format: ADME, organism-based. The conditions noted are these: in vivo. Set-up: dose 2 mg/kg, route intravenous.
The subject of series [10] is SW-620. Kind of series: animal or person. The conditions noted are these: Mus musculus, SW-620, po, read-out: TGI.
Series [11] concerns HCT-15. Put plainly: cells. The conditions noted are these: Homo sapiens, HCT-15, 72 h.
Description: Antiproliferative activity against human HCT15 cells after 72 hrs by MTT assay
The test system of series [12] is HCT-116. Kind of series: animal or person. The conditions noted are these: Mus musculus, HCT-116, po, read-out: TGI. The source holds these as a separate data set.
The nature of series [13]: Toxicity in nude mouse xenografted with human HCT116 cells assessed as body weight loss at 10 to 15 mg/kg, qd administered via gavage for 3 weeks. Format: organism-based. The settings on record: in vivo, po, 504 h. A general note: Xenograft models place foreign cells or tissue in a host animal.
Series [14] has as its system HCT-15. Kind of series: animal or person. The conditions noted are these: Mus musculus, HCT-15, po, read-out: TGI.
Series [15] is described as follows: Toxicity in nude mouse xenografted with human HCT15 cells assessed as body weight loss at 10 to 15 mg/kg, qd administered via gavage for 3 weeks. It is filed as organism-based. The settings on record: in vivo, po, 504 h.
For series [16], the system named is HCT-15. Kind of series: animal or person. The settings on record: Mus musculus, HCT-15, po, read-out: TGI. The source holds these as a separate data set.
Series [17] is described as follows: MRT (0 to t) in Sprague-Dawley rat at 15 mg/kg, po by LC-MS/MS analysis. It is filed as ADME, organism-based. The settings on record: in vivo.
Series [18] in a line: Cmax in Sprague-Dawley rat at 15 mg/kg, po by LC-MS/MS analysis. Details: dose 15 mg/kg, route oral. The conditions noted are these: in vivo. It is filed as ADME, organism-based.
A short description of series [19]: MRT (0 to t) in Sprague-Dawley rat at 2 mg/kg, iv by LC-MS/MS analysis. Format: ADME, organism-based. The conditions noted are these: in vivo.
The nature of series [20]: Oral bioavailability in Sprague-Dawley rat at 15 mg/kg by LC-MS/MS analysis. Format: ADME, organism-based. The settings on record: in vivo.
Series [21] is described as follows: AUC (0 to 24 hrs) in Sprague-Dawley rat at 15 mg/kg, po by LC-MS/MS analysis. Format: ADME, organism-based. Set-up: dose 15 mg/kg, time < 24 hr, route oral. The conditions noted are these: in vivo.
A short description of series [22]: Volume of distribution at steady state in Sprague-Dawley rat at 2 mg/kg, iv by LC-MS/MS analysis. Format: ADME, organism-based. The conditions noted are these: in vivo.
For series [23], the system named is SW-620. Kind of series: animal or person. The conditions noted are these: Mus musculus, SW-620, po, read-out: TGI. The source holds these as a separate data set.
A short description of series [24]: Toxicity in nude mouse xenografted with human SW620 cells assessed as body weight loss at 10 to 15 mg/kg, qd administered via gavage for 3 weeks. It is filed as organism-based. The settings on record: in vivo, po, 504 h.

What is called Tmax is the time at which the peak concentration occurs. A word on the AUC(0-t): it is exposure summed from dosing to a finite time, without extrapolation to infinity. Read a high AUC(0-t) as more exposure. In general, IC50 refers to the point on the concentration scale where inhibition reaches its midpoint. A higher IC50 goes with weaker potency. The term half-life denotes how long it takes for the measured level to halve. A high value points to slow loss. Broadly, the Cmax is the peak of the concentration-time curve. The MRT last is a mean duration of stay, worked out from the concentration-time curve. Usually bioavailability stands for dose-corrected exposure relative to a reference, in per cent. As usually defined, the Vdss is the apparent volume that relates the amount in the body to the concentration in plasma or blood. Low readings indicate little distribution into tissue, high ones wide distribution into tissue. `Cc1cc(O)c(-c2ccc([C@@H](C)CN)cc2)c2c1[nH]c(=O)c1c(O)cccc12`: in series [1], the CL was found to be 33.9532 mL/min/kg. For the same compound, the Tmax was 6.67 h in [2] and 4.8 min in series [4]. Besides, the inhibition in vivo at 10 mg/kg was 53.7% in series [3], 72.1% in series [10] and 42.1% in series [16]. Besides, in series [5], the AUC(0-t) stood at 564 ng·h/mL. The IC50 in series [6] turned out to be 5.41 nM; in series [8], 7.87 nM; in [11], 31.4 nM. The compound further gave a half-life in series [7] of 7.02 h. Also, the Cmax was found to be 188 ng/mL in series [9] and 251 ng/mL in [18]. The inhibition in vivo at 15 mg/kg in [12] amounted to 75.8%; in series [14], 78.8%; in series [23], 79.7%. Further, the Activity entry in series [13], in series [15] and in series [24] was “Non-Toxic” throughout. This compound returned an MRT last in series [17] of 10.5 h. Further, the “MRT(t)” value in series [19] was found to be 3.24 h. Besides, the bioavailability in series [20] came to 100%. Besides, the AUC(0-t) at 24 h in [21] is 4230 ng·h/mL. Moreover, the Vdss in series [22] stood at 20.25 L/kg.

The record behind these values is ChEMBL document CHEMBL4382235, “Design, synthesis and biological evaluation of novel 1-phenyl phenanthridin-6(5H)-one derivatives as anti-tumor agents targeting TOPK” (Eur J Med Chem, 2019).
